In the supplement of paper PMC11451515:

Tested on: SEM cells
Assay: cell viability relative to DMSO control; higher = less cytotoxic
Conditions: 48 h
How it was run: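 Viability is a per-plate percentage relative to DMSO wells, with cell-free wells as background. CellTiter-Glo One luminescence was read after 48 h at 37°C on 1536-well plates (5 μl) of NOMO1 or SEM (500 cells/well) or P12-Ichikawa (1000 cells/well) leukemia cells. The cells had been adapted for at least four passages in each medium and pin-dosed with library compounds in DMSO from 47 μM to 0.79 nM in 11 threefold steps.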

[1] = HPLM + 10% dialyzed FBS, 0.000781 µM
[2] = HPLM + 10% dialyzed FBS, 0.00234 µM
[3] = HPLM + 10% dialyzed FBS, 0.00702 µM
[4] = HPLM + 10% dialyzed FBS, 0.0211 µM
[5] = HPLM + 10% dialyzed FBS, 0.0632 µM
[6] = HPLM + 10% dialyzed FBS, 0.19 µM
[7] = HPLM + 10% dialyzed FBS, 0.569 µM
[8] = HPLM + 10% dialyzed FBS, 1.71 µM
[9] = HPLM + 10% dialyzed FBS, 5.12 µM
[10] = HPLM + 10% dialyzed FBS, 15.4 µM
[11] = HPLM + 10% dialyzed FBS, 46.1 µM
[12] = RPMI 5 mM glucose + 10% FBS, 0.000781 µM
[13] = RPMI 5 mM glucose + 10% FBS, 0.00234 µM
[14] = RPMI 5 mM glucose + 10% FBS, 0.00702 µM
[15] = RPMI 5 mM glucose + 10% FBS, 0.0211 µM
[16] = RPMI 5 mM glucose + 10% FBS, 0.0632 µM
[17] = RPMI 5 mM glucose + 10% FBS, 0.19 µM
[18] = RPMI 5 mM glucose + 10% FBS, 0.569 µM
[19] = RPMI 5 mM glucose + 10% FBS, 1.71 µM
[20] = RPMI 5 mM glucose + 10% FBS, 5.12 µM
[21] = RPMI 5 mM glucose + 10% FBS, 15.4 µM
[22] = RPMI 5 mM glucose + 10% FBS, 46.1 µM
[23] = RPMI 5 mM glucose + 10% dialyzed FBS, 0.000781 µM
[24] = RPMI 5 mM glucose + 10% dialyzed FBS, 0.00234 µM
[25] = RPMI 5 mM glucose + 10% dialyzed FBS, 0.00702 µM
[26] = RPMI 5 mM glucose + 10% dialyzed FBS, 0.0211 µM
[27] = RPMI 5 mM glucose + 10% dialyzed FBS, 0.0632 µM
[28] = RPMI 5 mM glucose + 10% dialyzed FBS, 0.19 µM
[29] = RPMI 5 mM glucose + 10% dialyzed FBS, 0.569 µM
[30] = RPMI 5 mM glucose + 10% dialyzed FBS, 1.71 µM
[31] = RPMI 5 mM glucose + 10% dialyzed FBS, 5.12 µM
[32] = RPMI 5 mM glucose + 10% dialyzed FBS, 15.4 µM
[33] = RPMI 5 mM glucose + 10% dialyzed FBS, 46.1 µM

SMILES | cell viability [1] [%] | cell viability [2] [%] | cell viability [3] [%] | cell viability [4] [%] | cell viability [5] [%] | cell viability [6] [%] | cell viability [7] [%] | cell viability [8] [%] | cell viability [9] [%] | cell viability [10] [%] | cell viability [11] [%] | cell viability [12] [%] | cell viability [13] [%] | cell viability [14] [%] | cell viability [15] [%] | cell viability [16] [%] | cell viability [17] [%] | cell viability [18] [%] | cell viability [19] [%] | cell viability [20] [%] | cell viability [21] [%] | cell viability [22] [%] | cell viability [23] [%] | cell viability [24] [%] | cell viability [25] [%] | cell viability [26] [%] | cell viability [27] [%] | cell viability [28] [%] | cell viability [29] [%] | cell viability [30] [%] | cell viability [31] [%] | cell viability [32] [%] | cell viability [33] [%]
CC(C)OC1=CC=C2C(=C1)O\C=C(/C2=O)C3=CC=CC=C3 | 106 | 118 | 105 | 118 | 115 | 123 | 110 | 125 | 112 | 133 | 106 | 113 | 123 | 134 | 109 | 131 | 130 | 133 | 144 | 128 | 144 | 116 | 106 | 133 | 121 | 126 | 129 | 146 | 157 | 156 | 147 | 148 | 126
C[C@H]1COC/2=C1/C(=O)C(=O)C3=C4CCCC(C)(C)C4=CC=C23 | 116 | 93.8 | 113 | 126 | 126 | 134 | 125 | 106 | 92.1 | 84.1 | 43.1 | 124 | 114 | 135 | 128 | 141 | 130 | 106 | 85.3 | 42.1 | 38.1 | 12.5 | 112 | 107 | 118 | 128 | 140 | 116 | 111 | 104 | 67.4 | 64.5 | 17.3
CC(C)(C)[C@H](NC(=O)c1ccc(N)c(Cl)c1)C(=O)N1CCC[C@H]1C(=O)N[C@H](C#N)CC(=O)O | 99.5 | 105 | 109 | 129 | 127 | 125 | 113 | 113 | 123 | 140 | 130 | 107 | 107 | 129 | 118 | 118 | 124 | 115 | 120 | 100 | 134 | 110 | 116 | 101 | 117 | 111 | 117 | 116 | 117 | 118 | 117 | 123 | 125
OCCn1cc(-c2cnc3nnn(Cc4ccc5ncccc5c4)c3n2)cn1 | 102 | 107 | 99.5 | 98.1 | 97.9 | 89.3 | 89.5 | 91.5 | 85.3 | 72.1 | 38.5 | 122 | 138 | 124 | 133 | 120 | 116 | 109 | 90.7 | 82.1 | 73.9 | 26.6 | 84.6 | 97.9 | 102 | 108 | 107 | 106 | 118 | 97.3 | 82 | 60.5 | 33.4
C[C@]12CCC\3=C\4CCC(=O)\C=C4CC[C@H]3[C@@H]1CC[C@@]2(O)CC#N | 97.2 | 103 | 123 | 97 | 124 | 118 | 121 | 144 | 137 | 132 | 115 | 117 | 124 | 116 | 88.3 | 143 | 116 | 138 | 130 | 146 | 139 | 128 | – | – | – | – | – | – | – | – | – | – | –
CN(C)C1=C(Br)C=C(C=C1)C\2NC3=C(\C4=C2C(=O)CC(C)(C)C4)C5=CC=CC=C5C=C3 (stereo unspecified) | 113 | 119 | 125 | 130 | 131 | 131 | 113 | 120 | 128 | 120 | 97.8 | 105 | 115 | 137 | 121 | 132 | 123 | 107 | 131 | 116 | 109 | 100 | 93.1 | 112 | 122 | 128 | 127 | 127 | 93.1 | 114 | 126 | 118 | 85.4
COC1=CC=C2CN(C)CC[C@@]34\C=C/[C@H](O)C[C@@H]3OC1=C24 | 119 | 113 | 115 | 27 | 117 | 111 | 114 | 126 | 103 | 119 | 103 | – | – | – | – | – | – | – | – | – | – | – | 108 | 111 | 126 | 25.3 | 114 | 125 | 104 | 107 | 96.3 | 100 | 99.3
COc1ncc(-c2ccc3c(Nc4cc(Oc5cc(F)cc(F)c5)cc(C(=O)O)c4)c([S+](=O)([O-])NC4CC4)cnc3c2)c(OC)n1 | 90.4 | 78.2 | 77.5 | 86 | 85.2 | 79.4 | 88.1 | 82.2 | 75.5 | 78 | 71.5 | 135 | 107 | 117 | 133 | 130 | 119 | 138 | 100 | 109 | 119 | 113 | 102 | 83.5 | 79.7 | 88.6 | 85 | 89.7 | 97.5 | 75.4 | 82.1 | 104 | 67.9
C[C@H]1O[C@H](C[C@H](O)[C@@H]1O)O[C@H]2[C@@H](O)C[C@@H](O[C@@H]2C)O[C@H]3[C@@H](O)C[C@@H](O[C@@H]3C)O[C@H]4CC[C@@]5(C)[C@H](CC[C@@H]6[C@@H]5C[C@@H](O)[C@]7(C)[C@H](CC[C@]67O)C/8=C/C(=O)OC8)C4 | 117 | 106 | 122 | 123 | 30.4 | 15.2 | 11 | 7.74 | 7.71 | 8.32 | 6.4 | – | – | – | – | – | – | – | – | – | – | – | – | – | – | – | – | – | – | – | – | – | –
CN1CCN(C(=O)O[C@H]2c3nccnc3C(=O)N2c2ccc(Cl)cn2)CC1 | 103 | 105 | 99.8 | 104 | 101 | 89 | 108 | 97.9 | 105 | 39.8 | 95.8 | 101 | 106 | 109 | 111 | 109 | 96.6 | 99.9 | 116 | 108 | 43.4 | 89 | 110 | 105 | 113 | 111 | 102 | 105 | 110 | 110 | 103 | 30.6 | 95.6
NC/1=N/C(=O)N(/C=N1)[C@@H]2O[C@H](CO)[C@@H](O)[C@H]2O | 85.7 | 107 | 117 | 106 | 76.2 | 100 | 104 | 105 | 75.4 | 24.5 | 3.65 | 95.7 | 107 | 99.5 | 102 | 70.9 | 110 | 90.4 | 94.8 | 75.1 | 35.3 | 7.85 | 90.8 | 87.8 | 82 | 90.1 | 69.7 | 93.5 | 82.3 | 74.6 | 38.9 | 6.43 | 3.29
CNC(=O)Nc1ccc(-c2nc(N3CC4CCC(C3)O4)c3cnn(C4CCC5(CC4)OCCO5)c3n2)cc1 | 109 | 106 | 97.8 | 83.9 | 73.8 | 53.6 | 58.1 | 53 | 45.9 | 34.3 | 36.9 | 76.6 | 77.9 | 65.6 | 51 | 43.2 | 36.8 | 40.1 | 34 | 25.3 | 22.9 | 14.5 | 105 | 106 | 88.7 | 80.7 | 71.6 | 56.2 | 59.4 | 53.9 | 39.6 | 31.3 | 41.4
CCN1CCCC1CNC(=O)c1cc([S+](N)(=O)[O-])ccc1OC (stereo unspecified) | 90 | 88.7 | 97.6 | 87.3 | 102 | 90.1 | 102 | 107 | 108 | 69.1 | 102 | 96.8 | 102 | 112 | 92.4 | 105 | 111 | 106 | 112 | 102 | 66 | 97.8 | 102 | 91.6 | 110 | 113 | 118 | 122 | 107 | 123 | 133 | 59.1 | 121
COc1cc(C)c(Sc2cnc(NC(=O)c3ccc(CNC(C)C(C)C)cc3)s2)cc1C(=O)N1CCN(C(C)=O)CC1 (stereo unspecified) | 119 | 134 | 124 | 118 | 96.6 | 105 | 96.2 | 104 | 81.7 | 42 | 108 | 115 | 135 | 111 | 129 | 109 | 112 | 110 | 112 | 73.9 | 43.4 | 121 | 124 | 141 | 116 | 118 | 121 | 118 | 109 | 102 | 79.9 | 49.7 | 132
CO/N=C(\C(=O)N[C@@H]1C(=O)N2C(C(=O)OCOC(=O)C(C)(C)C)=C(/C=C\c3scnc3C)CS[C@H]12)c1csc(N)n1 | 75.6 | 89.4 | 86.9 | 80.8 | 93.7 | 101 | 94.8 | 97.3 | 86.7 | 90.6 | 70.4 | 87.1 | 90.7 | 91.4 | 76.6 | 89 | 103 | 91.5 | 98.9 | 86.5 | 65.2 | 58.5 | 75.3 | 101 | 108 | 93.7 | 119 | 102 | 99.4 | 125 | 105 | 73 | 62.9
